Data from ChEMBL document CHEMBL5537158, “Polymyxins with Potent Antibacterial Activity against Colistin-Resistant Pathogens: Fine-Tuning Hydrophobicity with Unnatural Amino Acids” (J Med Chem, 2024).
≈ marks a conversion by molar mass, not a printed value. Positions of bridges follow the written chain, without caps; N, C: chain ends. Non-standard residues stand in square brackets, D forms with d. Residues, ends and D or L forms follow the SMILES beside them. *: point of attachment. dPhe(3,4,5-F3) = N[C@H](Cc1cc(F)c(F)c(F)c1)C(=O)O; dPhe(4-Cl) = N[C@H](Cc1ccc(Cl)cc1)C(=O)O; Phe(2-F) = N[C@@H](Cc1ccccc1F)C(=O)O; Gly(octyl) = CCCCCCCC[C@H](N)C(=O)O; d(hLeu) = CC(C)CC[C@@H](N)C(=O)O; hLeu = CC(C)CC[C@H](N)C(=O)O; Octanoyl = CCCCCCCC(=O)*; Dab = NCC[C@H](N)C(=O)O

Key:
Acinetobacter baumannii [1] = assay: Antimicrobial activity against colistin resistant Acinetobacter baumannii clinical isolate 3 assessed as bacterial growth inhibition incubated for 20 hrs by broth microdilution method; assay type: functional
Escherichia coli [2] = assay: Antibacterial activity against […] Escherichia coli ATCC 25922 assessed as bacterial growth inhibition incubated for 20 hrs by broth microdilution method; assay type: functional
Klebsiella pneumoniae [3] = assay: Antimicrobial activity against colistin resistant Klebsiella pneumoniae clinical isolate 4 assessed as bacterial growth inhibition incubated for 20 hrs by broth microdilution method; assay type: functional
Klebsiella pneumoniae [4] = assay: Antimicrobial activity against colistin resistant Klebsiella pneumoniae clinical isolate 3 assessed as bacterial growth inhibition incubated for 20 hrs by broth microdilution method; assay type: functional
Escherichia coli [5] = assay: Antibacterial activity against […] Escherichia coli clinical isolate 2 assessed as bacterial growth inhibition incubated for 20 hrs by broth microdilution method; assay type: functional
Klebsiella pneumoniae [6] = assay: Antimicrobial activity against colistin resistant Klebsiella pneumoniae clinical isolate 2 assessed as bacterial growth inhibition incubated for 20 hrs by broth microdilution method; assay type: functional
Pseudomonas aeruginosa [7] = assay: Antimicrobial activity against Pseudomonas aeruginosa PAO1 assessed as bacterial growth inhibition incubated for 20 hrs by broth microdilution method; assay type: functional
Klebsiella pneumoniae [8] = assay: Antimicrobial activity against Klebsiella pneumoniae ATCC 13883 assessed as bacterial growth inhibition incubated for 20 hrs by broth microdilution method; assay type: functional
Klebsiella pneumoniae [9] = assay: Antimicrobial activity against colistin resistant Klebsiella pneumoniae ATCC 13883 assessed as bacterial growth inhibition incubated for 20 hrs by broth microdilution method; assay type: functional
Escherichia coli [10] = assay: Antibacterial activity against Escherichia coli ATCC 25922 assessed as bacterial growth inhibition incubated for 20 hrs by broth microdilution method; assay type: functional
Escherichia coli [11] = assay: Antibacterial activity against […] Escherichia coli clinical isolate 1 assessed as bacterial growth inhibition incubated for 20 hrs by broth microdilution method; assay type: functional
Acinetobacter baumannii [12] = assay: Antimicrobial activity against Acinetobacter baumannii ATCC 19606 assessed as bacterial growth inhibition incubated for 20 hrs by broth microdilution method; assay type: functional
Acinetobacter baumannii [13] = assay: Antimicrobial activity against colistin resistant Acinetobacter baumannii clinical isolate 1 assessed as bacterial growth inhibition incubated for 20 hrs by broth microdilution method; assay type: functional
Escherichia coli [14] = assay: Antibacterial activity against […] Escherichia coli clinical isolate 3 assessed as bacterial growth inhibition incubated for 20 hrs by broth microdilution method; assay type: functional
Pseudomonas aeruginosa [15] = assay: Antimicrobial activity against colistin resistant Pseudomonas aeruginosa 7197/19 assessed as bacterial growth inhibition incubated for 20 hrs by broth microdilution method; assay type: functional
[16] = Hemolytic activity in human RBC at 400 ug/ml after 1 hr; assay type: toxicity, cell-based, Erythrocyte; settings: red blood cells (erythrocytes), at 400 µg/mL, read-out: Activity
Escherichia coli [17] = assay: Antimicrobial activity against […] Escherichia coli harboring mcr-1 assessed as bacterial growth inhibition incubated for 20 hrs by broth microdilution method; assay type: functional
Acinetobacter baumannii [18] = assay: Antimicrobial activity against colistin resistant Acinetobacter baumannii ATCC 3658/17 assessed as bacterial growth inhibition incubated for 20 hrs by broth microdilution method; assay type: functional
Pseudomonas aeruginosa [19] = assay: Antimicrobial activity against Pseudomonas aeruginosa ATCC 27853 assessed as bacterial growth inhibition incubated for 20 hrs by broth microdilution method; assay type: functional
Acinetobacter baumannii [20] = assay: Antimicrobial activity against colistin resistant Acinetobacter baumannii clinical isolate 4 assessed as bacterial growth inhibition incubated for 20 hrs by broth microdilution method; assay type: functional
Klebsiella pneumoniae [21] = assay: Antimicrobial activity against colistin resistant Klebsiella pneumoniae clinical isolate 1 assessed as bacterial growth inhibition incubated for 20 hrs by broth microdilution method; assay type: functional
Pseudomonas aeruginosa [22] = assay: Antimicrobial activity against colistin resistant Pseudomonas aeruginosa clinical isolate 1 assessed as bacterial growth inhibition incubated for 20 hrs by broth microdilution method; assay type: functional

Question: With CCCCCCCC[C@@H]1NC(=O)[C@@H](Cc2ccccc2)NC(=O)[C@H](CCN)NC(=O)[C@@H](NC(=O)[C@H](CCN)NC(=O)[C@@H](NC(=O)[C@H](CCN)NC(=O)CCCCCCC)[C@@H](C)O)CCNC(=O)[C@H]([C@@H](C)O)NC(=O)[C@H](CCN)NC(=O)[C@H](CCN)NC1=O (Octanoyl-[Dab]T[Dab][Dab][Dab][dF][Gly(octyl)][Dab][Dab]T; lactam 4-C) as the molecule, how does the MIC (Acinetobacter baumannii [1]) read?
Answer: 0.25 µg/mL (≈ 0.201 µM)

Question: What about the MIC (Escherichia coli [2]) of the same molecule?
Answer: 0.5 µg/mL (≈ 0.401 µM)

Question: And the MIC (Klebsiella pneumoniae [3])?
Answer: 16 µg/mL (≈ 12.8 µM)

Question: What about the MIC (Klebsiella pneumoniae [4]) of the same molecule?
Answer: 16 µg/mL (≈ 12.8 µM)

Question: What about the MIC (Escherichia coli [5]) of the same molecule?
Answer: 4 µg/mL (≈ 3.21 µM)

Question: What about the MIC (Klebsiella pneumoniae [6]) of the same molecule?
Answer: 16 µg/mL (≈ 12.8 µM)

Question: What about the MIC (Pseudomonas aeruginosa [7]) of the same molecule?
Answer: 0.5 µg/mL (≈ 0.401 µM)

Question: And the MIC (Klebsiella pneumoniae [8])?
Answer: 0.25 µg/mL (≈ 0.201 µM)

Question: And the MIC (Klebsiella pneumoniae [9])?
Answer: 16 µg/mL (≈ 12.8 µM)

Question: What about the MIC (Escherichia coli [10]) of the same molecule?
Answer: 0.5 µg/mL (≈ 0.401 µM)

Question: What about the MIC (Escherichia coli [11]) of the same molecule?
Answer: 4 µg/mL (≈ 3.21 µM)

Question: What about the MIC (Acinetobacter baumannii [12]) of the same molecule?
Answer: 0.25 µg/mL (≈ 0.201 µM)

Question: And the MIC (Acinetobacter baumannii [13])?
Answer: 4 µg/mL (≈ 3.21 µM)

Question: And the MIC (Escherichia coli [14])?
Answer: 4 µg/mL (≈ 3.21 µM)

Question: What about the MIC (Pseudomonas aeruginosa [15]) of the same molecule?
Answer: 0.25 µg/mL (≈ 0.201 µM)

Question: With CC(=O)N[C@H](Cc1c(F)c(F)c(F)c(F)c1F)C(=O)N[C@@H](CCN)C(=O)N[C@H](C(=O)N[C@@H](CCN)C(=O)N[C@H]1CCNC(=O)[C@H]([C@@H](C)O)NC(=O)[C@H](CCN)NC(=O)[C@H](CCN)NC(=O)[C@H](CC(C)C)NC(=O)[C@@H](Cc2ccccc2)NC(=O)[C@@H](CCN)NC1=O)[C@H](C)O as the molecule, how does the hemolysis at 1 h, 400 ug/ml [16] read?
Answer: < 10%

Question: What about the MIC (Pseudomonas aeruginosa [7]) of the same molecule?
Answer: 0.25 µg/mL (≈ 0.186 µM)

Question: What about the MIC (Klebsiella pneumoniae [8]) of the same molecule?
Answer: 8 µg/mL (≈ 5.96 µM)

Question: And the MIC (Escherichia coli [10])?
Answer: < 0.125 µg/mL

Question: And the MIC (Escherichia coli [17])?
Answer: 8 µg/mL (≈ 5.96 µM)

Question: What does the source list for CCCCCCCC(=O)N[C@@H](CCN)C(=O)N[C@H](C(=O)N[C@@H](CCN)C(=O)N[C@H]1CCNC(=O)[C@H]([C@@H](C)O)NC(=O)[C@H](CCN)NC(=O)[C@H](CCN)NC(=O)[C@H](Cc2ccccc2)NC(=O)[C@@H](CCC(C)C)NC(=O)[C@H](CCN)NC1=O)[C@@H](C)O (Octanoyl-[Dab]T[Dab][Dab][Dab][d(hLeu)]F[Dab][Dab]T; lactam 4-C)?
Answer: MIC (Klebsiella pneumoniae [8]): 0.5 µg/mL (≈ 0.415 µM); MIC (Escherichia coli [10]): < 0.125 µg/mL; MIC (Acinetobacter baumannii [12]): < 0.125 µg/mL; MIC (Pseudomonas aeruginosa [15]): 0.23 µg/mL (≈ 0.191 µM); MIC (Acinetobacter baumannii [18]): 1 µg/mL (≈ 0.831 µM)

Question: For CCCCCCCC(=O)N[C@@H](CCN)C(=O)N[C@H](C(=O)N[C@@H](CCN)C(=O)N[C@H]1CCNC(=O)[C@H]([C@@H](C)O)NC(=O)[C@H](CCN)NC(=O)[C@H](CCN)NC(=O)[C@H](Cc2ccccc2F)NC(=O)[C@@H](CC(C)C)NC(=O)[C@H](CCN)NC1=O)[C@@H](C)O (Octanoyl-[Dab]T[Dab][Dab][Dab][dL][Phe(2-F)][Dab][Dab]T; lactam 4-C), which MIC (Klebsiella pneumoniae [8]) is on record?
Answer: 4 µg/mL (≈ 3.31 µM)

Question: What about the MIC (Escherichia coli [10]) of the same molecule?
Answer: 0.06 µg/mL (≈ 0.0497 µM)

Question: What about the MIC (Acinetobacter baumannii [12]) of the same molecule?
Answer: 0.125 µg/mL (≈ 0.104 µM)

Question: What about the MIC (Escherichia coli [17]) of the same molecule?
Answer: 2 µg/mL (≈ 1.66 µM)

Question: Which MIC (Acinetobacter baumannii [1]) does the source give for CCCCCCCC(=O)N[C@@H](CCN)C(=O)N[C@H](C(=O)N[C@@H](CCN)C(=O)N[C@H]1CCNC(=O)[C@H]([C@@H](C)O)NC(=O)[C@H](CCN)NC(=O)[C@H](CCN)NC(=O)[C@H](CCC(C)C)NC(=O)[C@@H](Cc2ccccc2)NC(=O)[C@H](CCN)NC1=O)[C@@H](C)O (Octanoyl-[Dab]T[Dab][Dab][Dab][dF][hLeu][Dab][Dab]T; lactam 4-C) here?
Answer: 0.5 µg/mL (≈ 0.415 µM)

Question: What about the MIC (Escherichia coli [2]) of the same molecule?
Answer: 0.125 µg/mL (≈ 0.104 µM)

Question: And the MIC (Escherichia coli [5])?
Answer: 0.5 µg/mL (≈ 0.415 µM)

Question: What about the MIC (Klebsiella pneumoniae [6]) of the same molecule?
Answer: 8 µg/mL (≈ 6.65 µM)

Question: And the MIC (Pseudomonas aeruginosa [19])?
Answer: 0.25 µg/mL (≈ 0.208 µM)

Question: What about the MIC (Pseudomonas aeruginosa [7]) of the same molecule?
Answer: < 0.125 µg/mL

Question: And the MIC (Acinetobacter baumannii [20])?
Answer: 2 µg/mL (≈ 1.66 µM)

Question: And the MIC (Klebsiella pneumoniae [8])?
Answer: 0.25 µg/mL (≈ 0.208 µM)

Question: And the MIC (Klebsiella pneumoniae [21])?
Answer: 16 µg/mL (≈ 13.3 µM)

Question: And the MIC (Escherichia coli [10])?
Answer: < 0.125 µg/mL

Question: And the MIC (Escherichia coli [17])?
Answer: 1 µg/mL (≈ 0.831 µM)

Question: And the MIC (Acinetobacter baumannii [13])?
Answer: 4 µg/mL (≈ 3.32 µM)

Question: What about the MIC (Pseudomonas aeruginosa [15]) of the same molecule?
Answer: 0.5 µg/mL (≈ 0.415 µM)

Question: Which results are given for CCCCCCCC(=O)N[C@@H](CCN)C(=O)N[C@H](C(=O)N[C@@H](CCN)C(=O)N[C@H]1CCNC(=O)[C@H]([C@@H](C)O)NC(=O)[C@H](CCN)NC(=O)[C@H](CCN)NC(=O)[C@H](CC(C)C)NC(=O)[C@@H](Cc2cc(F)c(F)c(F)c2)NC(=O)[C@H](CCN)NC1=O)[C@@H](C)O (Octanoyl-[Dab]T[Dab][Dab][Dab][dPhe(3,4,5-F3)]L[Dab][Dab]T; lactam 4-C)?
Answer: MIC (Pseudomonas aeruginosa [7]): < 0.125 µg/mL; MIC (Klebsiella pneumoniae [8]): < 0.125 µg/mL; MIC (Escherichia coli [10]): < 0.125 µg/mL; MIC (Acinetobacter baumannii [12]): < 0.125 µg/mL; MIC (Escherichia coli [17]): 1 µg/mL (≈ 0.804 µM); MIC (Pseudomonas aeruginosa [15]): 0.25 µg/mL (≈ 0.201 µM)

Question: Which results are given for CCCCCCCC(=O)N[C@@H](CCN)C(=O)N[C@H](C(=O)N[C@@H](CCN)C(=O)N[C@H]1CCNC(=O)[C@H]([C@@H](C)O)NC(=O)[C@H](CCN)NC(=O)[C@H](CCN)NC(=O)[C@H](CC(C)C)NC(=O)[C@@H](Cc2ccc(Cl)cc2)NC(=O)[C@H](CCN)NC1=O)[C@@H](C)O (Octanoyl-[Dab]T[Dab][Dab][Dab][dPhe(4-Cl)]L[Dab][Dab]T; lactam 4-C)?
Answer: MIC (Klebsiella pneumoniae [4]): 16 µg/mL (≈ 13.1 µM); MIC (Pseudomonas aeruginosa [22]): 4 µg/mL (≈ 3.27 µM); MIC (Pseudomonas aeruginosa [7]): 0.25 µg/mL (≈ 0.204 µM); MIC (Acinetobacter baumannii [20]): 16 µg/mL (≈ 13.1 µM); MIC (Klebsiella pneumoniae [8]): < 0.125 µg/mL; MIC (Klebsiella pneumoniae [21]): 16 µg/mL (≈ 13.1 µM); MIC (Klebsiella pneumoniae [9]): 16 µg/mL (≈ 13.1 µM); MIC (Escherichia coli [11]): 2 µg/mL (≈ 1.63 µM); MIC (Pseudomonas aeruginosa [15]): 0.25 µg/mL (≈ 0.204 µM); MIC (Acinetobacter baumannii [18]): 0.25 µg/mL (≈ 0.204 µM)
